US20200361895A1, “NOVEL SULFONAMIDE CARBOXAMIDE COMPOUNDS” (Inflazome Limited, priority 2017, published 2020)
pIC50: −log10 of the molar value. Counter-ions that a name gives are not always drawn.

Key:
NLRP3 [1] = biological target: T1, NLRP3 (Homo sapiens, UniProt Q96P20); assay: THP-1 cells pyroptosis assay (LPS + nigericin, resazurin readout; THP IC50); format: cell-based; design: Seed THP-1 cells (25,000 cells/well) containing 1.0 μg/ml LPS in 40 μl of RPMI medium; host or cells: THP-1 cells
T1 sequence (Q96P20 whole entry): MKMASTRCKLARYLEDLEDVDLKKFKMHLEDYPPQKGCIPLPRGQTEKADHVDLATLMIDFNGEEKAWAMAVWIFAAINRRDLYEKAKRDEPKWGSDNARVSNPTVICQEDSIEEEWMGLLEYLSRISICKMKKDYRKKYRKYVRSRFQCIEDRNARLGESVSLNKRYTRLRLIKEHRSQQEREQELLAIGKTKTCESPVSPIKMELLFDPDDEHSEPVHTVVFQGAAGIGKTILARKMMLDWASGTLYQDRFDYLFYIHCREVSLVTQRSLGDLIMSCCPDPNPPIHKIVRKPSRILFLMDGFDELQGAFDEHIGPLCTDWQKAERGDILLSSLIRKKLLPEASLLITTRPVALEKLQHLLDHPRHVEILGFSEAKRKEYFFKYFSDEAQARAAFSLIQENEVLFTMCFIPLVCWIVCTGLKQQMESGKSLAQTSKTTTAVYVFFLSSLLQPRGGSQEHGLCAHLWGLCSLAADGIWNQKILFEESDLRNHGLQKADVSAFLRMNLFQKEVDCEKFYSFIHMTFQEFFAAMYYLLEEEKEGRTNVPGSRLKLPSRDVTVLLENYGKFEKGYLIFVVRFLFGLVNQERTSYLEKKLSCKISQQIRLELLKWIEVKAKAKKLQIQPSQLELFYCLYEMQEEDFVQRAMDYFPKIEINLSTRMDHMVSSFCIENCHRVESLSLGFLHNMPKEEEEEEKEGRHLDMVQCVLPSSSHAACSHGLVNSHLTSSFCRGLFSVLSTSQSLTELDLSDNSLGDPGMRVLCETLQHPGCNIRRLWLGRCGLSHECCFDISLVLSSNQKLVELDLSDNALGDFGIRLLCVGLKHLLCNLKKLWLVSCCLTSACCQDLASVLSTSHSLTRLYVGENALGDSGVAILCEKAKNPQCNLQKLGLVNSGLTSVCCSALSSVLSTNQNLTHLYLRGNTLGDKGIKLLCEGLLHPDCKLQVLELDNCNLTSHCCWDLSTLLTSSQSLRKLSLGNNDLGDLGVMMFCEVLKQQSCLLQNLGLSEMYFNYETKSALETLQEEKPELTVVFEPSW
Summary of the method: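 Human THP-1 cells, 25,000/well in serum-free RPMI with 1 μg/ml LPS, treated 3 hrs at 37° C with compound (8-point half-log, 10 μM top, 0.1% DMSO), then 5 μM nigericin 1 hr. Viability by 100 μM resazurin fluorescence after 1-2 hrs; IC50 by 4-parameter fit.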

NLRP3 [2] = biological target: T1, NLRP3; assay: Human whole blood IL1β release assay (LPS + nigericin, AlphaLisa IL-1β; HWB IC50); format: cell-based; design: Human whole blood in Li-heparin tubes was obtained from healthy donors from a volunteer donor panel; from tissue; host or cells: human whole blood from healthy donors; details: IL-1β release
Summary of the method: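 Donor Li-heparin whole blood primed with 1 μg/ml LPS, given compound (8-point half-log series, 10 μM top; DMSO 0.1% final) for 3 h at 37 °C, then nigericin 10 μM final for 1 h. Supernatant IL-1β measured by AlphaLisa; IC50 from 4-parameter variable-slope fit.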

COc1cc(-c2ccc3c(c2NC(=O)NS(=O)(=O)c2cnc(=O)n(C(C)C)c2)CCC3)ccn1 [Example 95, 1-Isopropyl-N-((5-(2-methoxypyridin-4-yl)-2,3-dihydro-1H-inden-4-yl)carbamoyl)-2-oxo-1,2-dihydropyrimidine-5-sulfonamide, sodium salt]
pIC50 (NLRP3 [1]): ≥ 6.30
pIC50 (NLRP3 [2]): ≥ 6.00

COc1cc(-c2ccc3c(c2NC(=O)NS(=O)(=O)c2ccn(C(C)(C)CN4CC(OC)C4)n2)CCC3)ccn1 [Example 180, 1-(1-(3-Methoxyazetidin-1-yl)-2-methylpropan-2-yl)-N-((5-(2-methoxypyridin-4-yl)-2,3-dihydro-1H-inden-4-yl)carbamoyl)-1H-pyrazole-3-sulfonamide]
pIC50 (NLRP3 [1]): ≥ 6.30
pIC50 (NLRP3 [2]): ≥ 6.30

N#Cc1cc(-c2ccc3c(c2NC(=O)NS(=O)(=O)c2ccn(C4CC4)n2)CCC3)ccn1 [Example 222, N-((5-(2-Cyanopyridin-4-yl)-2,3-dihydro-1H-inden-4-yl)carbamoyl)-1-cyclopropyl-1H-pyrazole-3-sulfonamide, sodium salt]
pIC50 (NLRP3 [1]): ≥ 6.30
pIC50 (NLRP3 [2]): ≥ 6.30

COc1cc(-c2cc(F)cc(C(C)C)c2NC(=O)NS(=O)(=O)CC2CCN(C)C2)ccn1 (stereo not shown) [Example 163, N-((4-Fluoro-2-isopropyl-6-(2-methoxypyridin-4-yl)phenyl)carbamoyl)-1-(1-methylpyrrolidin-3-yl) methanesulfonamide]
pIC50 (NLRP3 [1]): ≥ 6.30
pIC50 (NLRP3 [2]): ≥ 6.30

CC(C)n1cnc(S(=O)(=O)NC(=O)Nc2c(-c3ccnc(C#N)c3)ccc3c2CCC3)c1 [Example 229, N-((5-(2-Cyanopyridin-4-yl)-2,3-dihydro-1H-inden-4-yl)carbamoyl)-1-isopropyl-1H-imidazole-4-sulfonamide]
pIC50 (NLRP3 [1]): ≥ 6.30
pIC50 (NLRP3 [2]): ≥ 6.30

COc1cc(-c2ccc3c(c2NC(=O)NS(=O)(=O)c2ccn(C(C)(C)C(=O)N(C)C)n2)CCC3)ccn1 [Example 189, 2-(3-(N-((5-(2-Methoxypyridin-4-yl)-2,3-dihydro-1H-inden-4-yl)carbamoyl)sulfamoyl)-1H-pyrazol-1-yl)-N,N,2-trimethylpropanamide]
pIC50 (NLRP3 [1]): ≥ 6.30
pIC50 (NLRP3 [2]): ≥ 6.30

CN1CCCC1CN(C)S(=O)(=O)NC(=O)Nc1c(-c2ccnc(C#N)c2)ccc2c1CCC2 (stereo not shown) [Example 321, 3-(N-Methyl-N-((1-methylpyrrolidin-2-yl)methyl)sulfamoyl)-1-(5-(2-cyanopyridin-4-yl)-2,3-dihydro-1H-inden-4-yl)urea]
pIC50 (NLRP3 [1]): ≥ 6.00
pIC50 (NLRP3 [2]): ≥ 6.30

COc1cc(-c2cc(F)cc(C(C)C)c2NC(=O)NS(=O)(=O)c2cc(N(C)C)cnn2)ccn1 [Example 119, 5-(Dimethylamino)-N-((4-fluoro-2-isopropyl-6-(2-methoxypyridin-4-yl)phenyl)carbamoyl) pyridazine-3-sulfonamide]
pIC50 (NLRP3 [1]): ≥ 6.30
pIC50 (NLRP3 [2]): ≥ 5.30

CCn1nc(S(=O)(=O)NC(=O)Nc2c(-c3cccnc3)cc(F)c3c2CCC3)cc1CN(C)C [Example 65, 5-((Dimethylamino)methyl)-1-ethyl-N-((7-fluoro-5-(pyridin-3-yl)-2,3-dihydro-1H-inden-4-yl)carbamoyl)-1H-pyrazole-3-sulfonamide]
pIC50 (NLRP3 [1]): ≥ 6.30
pIC50 (NLRP3 [2]): ≥ 6.30

COc1cc(-c2ccc3c(c2NC(=O)NS(=O)(=O)c2ccn(C4CC4)n2)CCC3)c(F)cn1 [Example 255, 1-Cyclopropyl-N-((5-(5-fluoro-2-methoxypyridin-4-yl)-2,3-dihydro-1H-inden-4-yl)carbamoyl)-1H-pyrazole-3-sulfonamide, sodium salt]
pIC50 (NLRP3 [1]): ≥ 6.30
pIC50 (NLRP3 [2]): ≥ 6.30

[2H]C([2H])([2H])Oc1cc(-c2ccc3c(c2NC(=O)NS(=O)(=O)c2ccn(C4CCC4)n2)CCC3)ccn1 [Example 290, 1-Cyclobutyl-N-((5-(2-(methoxy-d3)pyridin-4-yl)-2,3-dihydro-1H-inden-4-yl)carbamoyl)-1H-pyrazole-3-sulfonamide, sodium salt]
pIC50 (NLRP3 [1]): ≥ 6.30
pIC50 (NLRP3 [2]): ≥ 6.30

COC(C)(C)c1cc(S(=O)(=O)NC(=O)Nc2c(-c3cccnc3)cc(F)cc2C(C)C)nn1C [Example 35, N-((4-Fluoro-2-iso-propyl-6-(pyridin-3-yl)phenyl)carbamoyl)-5-(2-methoxypropan-2-yl)-1-methyl-1H-pyrazole-3-sulfonamide]
pIC50 (NLRP3 [1]): ≥ 6.30
pIC50 (NLRP3 [2]): ≥ 6.00

COc1cc(-c2cc(F)c3c(c2NC(=O)NS(=O)(=O)N2C[C@H]4C[C@@H]2CN4C)CCC3)ccn1 [Example 126, (1R,4R)—N-((7-Fluoro-5-(2-methoxypyridin-4-yl)-2,3-dihydro-1H-inden-4-yl)carbamoyl)-5-methyl-2,5-diazabicyclo[2.2.1]heptane-2-sulfonamide]
pIC50 (NLRP3 [1]): ≥ 6.30
pIC50 (NLRP3 [2]): ≥ 6.30

COc1cc(-c2ccc3c(c2NC(=O)NS(=O)(=O)c2cnn(CC(F)F)c2)CCC3)ccn1 [Example 235, 1-(2,2-Difluoroethyl)-N-((5-(2-methoxypyridin-4-yl)-2,3-dihydro-1H-inden-4-yl)carbamoyl)-1H-pyrazole-4-sulfonamide, sodium salt]
pIC50 (NLRP3 [1]): ≥ 6.30
pIC50 (NLRP3 [2]): ≥ 6.30

Cc1cc(-c2ccc3c(c2NC(=O)NS(=O)(=O)c2ccn(C4CCC4)n2)CCC3)ccn1 [Example 269, 1-Cyclobutyl-N-((5-(2-methylpyridin-4-yl)-2,3-dihydro-1H-inden-4-yl)carbamoyl)-1H-pyrazole-3-sulfonamide, sodium salt]
pIC50 (NLRP3 [1]): ≥ 6.30
pIC50 (NLRP3 [2]): ≥ 6.30

COc1cc(-c2ccc3c(c2NC(=O)NS(=O)(=O)c2ccn(C4CCC4)n2)CCO3)ccn1 [Example 257, 1-Cyclobutyl-N-((5-(2-methoxypyridin-4-yl)-2,3-dihydrobenzofuran-4-yl)carbamoyl)-1H-pyrazole-3-sulfonamide, sodium salt]
pIC50 (NLRP3 [1]): ≥ 6.30
pIC50 (NLRP3 [2]): ≥ 6.30

COc1cc(-c2ccc3c(c2NC(=O)NS(=O)(=O)CC2CCN(C)C2)CCC3)ccn1 (stereo not shown) [Example 164, N-((5-(2-Methoxypyridin-4-yl)-2,3-dihydro-1H-inden-4-yl)carbamoyl)-1-(1-methylpyrrolidin-3-yl) methanesulfonamide]
pIC50 (NLRP3 [1]): ≥ 6.30
pIC50 (NLRP3 [2]): ≥ 6.30

COc1cc(-c2cc(F)cc(C(C)C)c2NC(=O)NS(=O)(=O)c2ccn(C(C)C)n2)ccn1 [Example 12, N-((4-Fluoro-2-iso-propyl-6-(2-methoxypyridin-4-yl)phenyl)carbamoyl)-1-iso-propyl-1H-pyrazole-3-sulfonamide, partial ammonium salt]
pIC50 (NLRP3 [1]): ≥ 6.30
pIC50 (NLRP3 [2]): ≥ 6.00

COc1cc(-c2cc(F)c3c(c2NC(=O)NS(=O)(=O)c2ccn(CCN(C)C)n2)CCC3)ccn1 [Example 63, 1-(2-(Dimethylamino)ethyl)-N-((7-fluoro-5-(2-methoxypyridin-4-yl)-2,3-dihydro-1H-inden-4-yl)carbamoyl)-1H-pyrazole-3-sulfonamide]
pIC50 (NLRP3 [1]): ≥ 6.30
pIC50 (NLRP3 [2]): ≥ 6.30

COc1cc(-c2ccc3c(c2NC(=O)NS(=O)(=O)c2ccn(C4CCOC4)n2)CCC3)ccn1 (stereo not shown) [Example 187, N-((5-(2-Methoxypyridin-4-yl)-2,3-dihydro-1H-inden-4-yl)carbamoyl)-1-(tetrahydrofuran-3-yl)-1H-pyrazole-3-sulfonamide]
pIC50 (NLRP3 [1]): ≥ 6.30
pIC50 (NLRP3 [2]): ≥ 6.30

CC(C)n1cc(S(=O)(=O)NC(=O)Nc2c(-c3ccnc(C#N)c3)ccc3c2CCC3)ncc1=O [Example 72, N-((5-(2-Cyanopyridin-4-yl)-2,3-dihydro-1H-inden-4-yl)carbamoyl)-4-isopropyl-5-oxo-4,5-dihydropyrazine-2-sulfonamide, sodium salt]
pIC50 (NLRP3 [1]): ≥ 6.30
pIC50 (NLRP3 [2]): ≥ 6.00

COc1cc(-c2ccc3c(c2NC(=O)NS(=O)(=O)c2ccc(CN(C)C)c(C4CC4)c2)CCC3)ccn1 [Example 313, 3-Cyclopropyl-4-((dimethylamino)methyl)-N-((5-(2-methoxypyridin-4-yl)-2,3-dihydro-1H-inden-4-yl)carbamoyl)benzenesulfonamide]
pIC50 (NLRP3 [1]): ≥ 6.30
pIC50 (NLRP3 [2]): ≥ 6.30

COc1cc(-c2ccc3c(c2NC(=O)NS(=O)(=O)c2ccc(C(C)C)c(CN(C)C)c2)CCC3)ccn1 [Example 282, 3-((Dimethylamino)methyl)-4-isopropyl-N-((5-(2-methoxypyridin-4-yl)-2,3-dihydro-1H-inden-4-yl)carbamoyl)benzenesulfonamide, sodium salt]
pIC50 (NLRP3 [1]): ≥ 6.30
pIC50 (NLRP3 [2]): ≥ 6.30

COc1cc(-c2ccc3c(c2NC(=O)NS(=O)(=O)c2cc(C4CCCN4C)n(C(C)C)n2)CCC3)ccn1 (stereo not shown) [Example 191, 1-Isopropyl-N-((5-(2-methoxypyridin-4-yl)-2,3-dihydro-1H-inden-4-yl)carbamoyl)-5-(1-methylpyrrolidin-2-yl)-1H-pyrazole-3-sulfonamide, sodium salt]
pIC50 (NLRP3 [1]): ≥ 6.30
pIC50 (NLRP3 [2]): ≥ 6.00

COc1cc(-c2ccc3c(c2NC(=O)NS(=O)(=O)N2CC4CCN(C)C4C2)CCC3)ccn1 (stereo not shown) [Example 320, N-((5-(2-Methoxypyridin-4-yl)-2,3-dihydro-1H-inden-4-yl)carbamoyl)-1-methylhexahydropyrrolo[3,4-b]pyrrole-5(1H)-sulfonamide, potassium salt]
pIC50 (NLRP3 [1]): ≥ 6.30
pIC50 (NLRP3 [2]): ≥ 6.30

COc1cc(-c2cc(F)c3c(c2NC(=O)NS(=O)(=O)c2ccn(C4CCC4)n2)CCC3)ccn1 [Example 172, 1-Cyclobutyl-N-((7-fluoro-5-(2-methoxypyridin-4-yl)-2,3-dihydro-1H-inden-4-yl)carbamoyl)-1H-pyrazole-3-sulfonamide, sodium salt]
pIC50 (NLRP3 [1]): ≥ 6.30
pIC50 (NLRP3 [2]): ≥ 6.00
